Source: ChEMBL document CHEMBL5252668, “Targeting the "Undruggable" Driver Protein, KRASG12D, as Potential Therapy in Prostate Cancer” (ACS Med Chem Lett, 2023)

Columns and labels:
GTPase KRas [1] = molecular target: T1, GTPase KRas (Homo sapiens, UniProt P01116, G12D)
GTPase KRas [2] = molecular target: T1, GTPase KRas; remark: listed apart in the source

T1 sequence (P01116 whole entry G12D): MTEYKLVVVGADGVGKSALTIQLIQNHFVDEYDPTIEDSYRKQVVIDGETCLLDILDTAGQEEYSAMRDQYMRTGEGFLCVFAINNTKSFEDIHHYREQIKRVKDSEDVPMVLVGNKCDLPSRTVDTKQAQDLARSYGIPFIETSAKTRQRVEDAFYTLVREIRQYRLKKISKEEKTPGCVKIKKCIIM

Row | SMILES | IC50 (GTPase KRas [1]) [nM] | IC50 (GTPase KRas [2]) [nM]
1 | CCc1cccc2cc(O)cc(-c3ncc4c(N5CCCC6(CCO6)C5)nc(OC[C@@]56CCCN5C[C@H](F)C6)nc4c3F)c12 (stereo not given in full) | 3 | 11
2 | CCc1c(F)ccc2cc(O)cc(-c3ncc4c(N5CCCC6(CCO6)C5)nc(OC[C@@]56CCCN5C[C@H](F)C6)nc4c3C)c12 (stereo not given in full) | 4 | 7
3 | Oc1cc(Cl)c(C2CC2)c(-c2ncc3c(N4CCCC5(CCO5)C4)nc(OC[C@@]45CCCN4C[C@H](F)C5)nc3c2F)c1 (stereo not given in full) | 2 | 66
4 | CCc1c(F)ccc2cc(O)cc(-c3ncc4c(N5CCCC6(CC(=O)N6)C5)nc(OC[C@@]56CCCN5C[C@H](F)C6)nc4c3F)c12 (stereo not given in full) | 2 | 44
5 | CCc1c(F)ccc2cc(O)cc(-c3ncc4c(N5CC(O)CC6(CC6)C5)nc(OC[C@@]56CCCN5C[C@H](F)C6)nc4c3F)c12 (stereo not given in full) | 2 | 34

Next, values leading:

Row | IC50 (GTPase KRas [1]) [nM] | IC50 (GTPase KRas [2]) [nM] | SMILES
6 | 1 | 3 | Oc1cc(-c2ncc3c(N4CCC[C@]5(CCO5)C4)nc(OC[C@@]45CCCN4C[C@H](F)C5)nc3c2F)c2c(Cl)c(F)ccc2c1
7 | 1 | 22 | CCc1cccc2cc(O)cc(-c3ncc4c(N5CCCC6(CC(O)C6)C5)nc(OC[C@@]56CCCN5C[C@H](F)C6)nc4c3F)c12 (stereo not given in full)
8 | 2 | 9 | Oc1cc(-c2ncc3c(N4CCCC5(CCO5)C4)nc(OC[C@@]45CCCN4C[C@H](F)C5)nc3c2F)c2c(F)c(F)ccc2c1 (stereo not given in full)
9 | 2 | 119 | Oc1cc(-c2ncc3c(N4CCCC5(CC(O)C5)C4)nc(OC[C@@]45CCCN4C[C@H](F)C5)nc3c2F)c2c(F)c(F)ccc2c1 (stereo not given in full)
10 | 1 | 43 | C#Cc1c(F)ccc2cc(O)cc(-c3ncc4c(N5CCCC6(CCO6)C5)nc(OC[C@@]56CCCN5C[C@H](F)C6)nc4c3F)c12 (stereo not given in full)
